Common to all, as to assay: growth of human tumour cells (NCI), 48 h
The test system of assay [1] is BT-549 breast.
Assay [2] deals with HCT-15 colon.
Assay [3] deals with HS 578T breast.
The subject of assay [4] is MDA-MB-435.
The subject of assay [5] is OVCAR-5 ovarian.
For assay [6], the system named is RXF 393 renal.
In assay [7] the test system is SF-268 CNS.
The subject of assay [8] is SK-MEL-2 melanoma.

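Each compound was tested at five concentrations against cells in 96-well plates for 48 hours. At the TGI there is no net growth.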

`CC(=O)Oc1cccc2c1C(=O)CCCC2`: the TGI in assay [1], in assay [2], in assay [3], in assay [4], in assay [5] and in assay [6] was over 100 µM in each case. Also, the TGI in assay [7] and in assay [8] was over 100 µM each time.
For `Nc1nccc(-c2c[nH]c3cc(Br)ccc23)n1`, the TGI was over 100 µM in assay [1]; over 100 µM in assay [2]; 75.7 µM in assay [3]; 80.4 µM in assay [4]; 49 µM in assay [5]; 49.3 µM in assay [6]. In addition, the TGI in assay [7] was over 100 µM; in assay [8] it was 47.2 µM.
In the case of `Nc1nc2c(c(-c3cccc(Cl)c3)n1)COC/C2=C\c1cccc(Cl)c1`, the TGI in assay [1], in assay [2], in assay [3], in assay [4], in assay [5] and in assay [6] was over 100 µM in each case. The TGI in assay [7] and in assay [8] was over 100 µM each time.
For `NC(N)=Nc1ccc(CC(N)NCC(=O)O)cc1` (stereo not drawn), the TGI in assay [1], in assay [2], in assay [3], in assay [4], in assay [5] and in assay [6] was over 25 µM each time. In addition, the TGI in assay [7] and in assay [8] was over 25 µM in each case.
Regarding `O=[N+]([O-])c1cc(C=NC23CC4CC(CC(C4)C2)C3)ccc1Cl`, the TGI is 45.3 µM in assay [1]; 48.3 µM in assay [2]; over 94 µM in assay [3]; 42.2 µM in assay [4]; over 100 µM in assay [5]; 37.2 µM in assay [6]. Besides, the TGI was over 85.9 µM in assay [7] and over 100 µM in assay [8].
Regarding `Cc1ccc(N(Cc2ccccc2)Cc2ccccc2)cc1`, the TGI in assay [1], in assay [2], in assay [3], in assay [4], in assay [5] and in assay [6] was over 100 µM throughout. The TGI in assay [7] was over 100 µM; in assay [8], 63.3 µM.
With `CC1(C)O[C@H]2OC(CO[Si](C)(C)C(C)(C)C)C(N=[N+]=[N-])[C@H]2O1` (stereo partly drawn), the TGI in assay [1] came out at 36.7 µM; in assay [2], 38.3 µM; in assay [3] it was 51.5 µM; in assay [4], 66.4 µM; in assay [5] it was 35.2 µM; in assay [6], 32.6 µM. In addition, the TGI in assay [7] came to 41.3 µM; in assay [8], 32 µM.
`N=c1nnc2ccc(Cl)cc2n1O`: the TGI in assay [1] was over 100 µM; in assay [2], over 100 µM; in assay [3], over 100 µM; in assay [4] it was over 100 µM; in assay [5], over 100 µM; in assay [6] it was 95.2 µM. The TGI in assay [7] and in assay [8] was over 100 µM in each case.
As to `CC(C)=CCC[C@@H](C)c1c(O)c(O)c(C)c2nccnc12`, the TGI is over 100 µM in assay [1]; over 100 µM in assay [2]; over 80.2 µM in assay [3]; over 100 µM in assay [4]; over 100 µM in assay [5]; over 89.1 µM in assay [6]. Besides, the TGI is over 100 µM in assay [7] and 58 µM in assay [8].
In the case of `Cc1ccc(NC(=O)c2ccc(OP(=O)(O)Nc3ccc(C)cc3)cc2)cc1`, the TGI in assay [1], in assay [2], in assay [3], in assay [4], in assay [5] and in assay [6] was over 100 µM in each case. In addition, the TGI in assay [7] and in assay [8] was over 100 µM each time.
Consider `CC1(C(=O)O)CCC2(C)CCC3(C)C(=CC(=O)C4C5(C)CCC(O)C(C)(C)C5CCC43C)C2C1` (stereo not drawn), for which the TGI in assay [1] is 42.3 µM; in assay [2], 85.4 µM; in assay [3] it was 65.7 µM; in assay [4], over 100 µM; in assay [5], 82.9 µM; in assay [6], 83 µM. Moreover, the TGI in assay [7] was 67.4 µM; in assay [8], 92.4 µM.
Consider `N#CC(Cc1ccccc1)N(CCC1=CCCCC1)C(c1ccccc1)c1ccccc1` (stereo not drawn), for which the TGI in assay [1], in assay [2], in assay [3], in assay [4], in assay [5] and in assay [6] was over 100 µM throughout. Besides, the TGI in assay [7] and in assay [8] was over 100 µM in each case.
`COC(=O)C1=C(C(=O)OC)SC(=C2SCSC3=C2SC(C(=O)OC)=C(C(=O)OC)C32SC3=C(CCCC3)S2)S1`: the TGI is over 100 µM in assay [1]; over 100 µM in assay [2]; over 100 µM in assay [3]; over 100 µM in assay [4]; over 100 µM in assay [5]; 70 µM in assay [6]. In addition, the TGI in assay [7] and in assay [8] was over 100 µM throughout.
As for `NC1(c2cc3ccccc3s2)CCCC1`, the TGI in assay [1], in assay [2], in assay [3], in assay [4], in assay [5] and in assay [6] was over 100 µM each time. In addition, the TGI in assay [7] and in assay [8] was over 100 µM throughout.
As to `Cc1ccnc(NS(=O)(=O)c2ccc(N=[N+]=[N-])cc2)n1`, the TGI in assay [1], in assay [2], in assay [3], in assay [4], in assay [5] and in assay [6] was over 100 µM in each case. The TGI in assay [7] and in assay [8] was over 100 µM each time.
As to `Cc1ccc(-c2csc(=Nc3ccccc3)n2NC(=O)c2ccncc2)cc1`, the TGI in assay [1] is over 91.8 µM; in assay [2] it was over 100 µM; in assay [3], over 100 µM; in assay [4], over 100 µM; in assay [5] it was over 100 µM; in assay [6], over 100 µM. Further, the TGI in assay [7] is over 100 µM; in assay [8], 96.1 µM.

These data come from PubChem BioAssay (NCI).
